Assay results reported in US20240199605A1, “SMALL MOLECULAR INHIBITORS OF NF-kB INDUCING KINASE” (Janssen Pharmaceutica NV, priority 2019, published 2024).

Tests used:
[1] = target: recombinant human NF-kappaB-inducing kinase (NIK/MAP3K14) (Homo sapiens (Human), UniProt Q99558); test: Inhibition of auto-phosphorylation of recombinant human NIK/MAP3K14 (AlphaScreen); assay type: biochemical; conditions: NIK auto-phosphorylation, 5 μM ATP, 1 nM NIK, 2 h at 25° C.; average of values
Procedure: Inhibition of auto-phosphorylation of recombinant human NF-kappaB-inducing kinase (NIK/MAP3K14) activity (AlphaScreen®)
NIK/MAP3K14 auto-phosphorylation activity was measured using the AlphaScreen® (αscreen) format (Perkin Elmer). All compounds tested were dissolved in dimethyl sulfoxide (DMSO) and further dilutions were made in assay buffer. The final DMSO concentration was 0.7% (v/v) in assays. The assay buffer was 50 mM Tris pH 7.5 containing 1 mM EGTA (ethylene glycol tetraacetic acid), 1 mM DTT (dithiothreitol), 0.1 mM Na3VO4, 5 mM MgCl2, and 0.01% Tween® 20. The assays were carried out in 384 well Proxiplates (Perkin Elmer). The incubations consisted of the compound, 5 μM Adenosine-5′-triphosphate (ATP), and 1 nM NIK/MAP3K14. Incubations were initiated by the addition of GST-tagged NIK/MAP3K14 enzyme, carried out for 2 h at 25° C. and terminated by addition of stop buffer containing anti-phospho-IKK Ser176/180 antibody. Protein A Acceptor and Glutathione-Donor beads were added before reading using an EnVision® Multilabel Plate Reader (Perkin Elmer). […] IC50's were determined by fitting a sigmoidal curve to % inhibition of control versus Log10 compound concentration.

[2] = test system: p-IKKα levels in L363 (NIK translocated multiple myeloma) cells; test: Effect of compounds on p-IKKα levels in L363 cells (AlphaLISA SureFire Ultra); assay type: cell-based, human; conditions: Homo sapiens, L-363, 6 h, BAFF stimulated, MG132, 6 h, average of values, read-out: Assay 2 IC50
Procedure: Effect of Compounds on p-IKKα Levels in L363 (NIK Translocated Multiple Myeloma) Cells
All compounds tested were dissolved and serially diluted in DMSO, 1:3 dilution for 11 points in an Echo compatible plate. 100% DMSO was added to columns 12 and 24 of the plate to serve as high and low signal controls. This compound plate was used to spot 20 nL of compound or DMSO into a Greiner 384 well TC plate (781080). The final DMSO concentration was 0.3% (v/v) in cell assays. Human L363 cells (ATCC) were cultured in RPM11640 medium supplemented with GlutaMax, non-essential amino acids, sodium pyruvate and 10% fetal bovine serum. Cells were routinely maintained at densities of […] at 37° C. in a humidified 5% CO2 atmosphere incubator. Cells were passaged twice a week splitting back to obtain the low density. The day before the assay, cells were washed twice in HBSS (Hank's Balanced Salt Solution), resuspended in Dulbecco's Modified Eagle Medium (DMEM)+0.5% IgG and protease free BSA (Jackson Immuno Research Laboratories), +/−250 ng/ml recombinant human B-cell activating factor (BAFF/BLyS/TNFSF13B) and incubated overnight at 37° C. in a humidified 5% CO2 atmosphere (bulk stimulation with or without BAFF). The next day, the cell concentration was adjusted to 1×10^7 cells/ml in DMEM+/−250 ng/ml BAFF+/−10 μM MG132 and plated at 10 μl/well into compound or DMSO spotted 384 well TC plates. Seeded cells were incubated at 37° C. in a humidified 5% CO2 atmosphere for 6 h. After 6 h, the plates were removed from the incubator and cell lysis was achieved by the addition of 2.5 μl 5× lysis buffer containing protease and phosphatase inhibitors, followed by shaking on a plate shaker at room temperature for 15 min. At the end of this incubation, lysed cells were sequentially treated and incubated with acceptor and donor bead mixes according to the manufacturer's protocol for a 1 plate/2-incubation suspension cell assay (AlphaLISA SureFire Ultra p-IKKa (Ser 176/180) Assay Kit (Perkin Elmer). Plates were read using an EnVision® Multilabel Plate Reader (Perkin Elmer). Within an experiment, a concentration response curve for each compound was run in duplicate. The signal obtained in the test wells was normalized using high signal (BAFF stimulated cells, DMSO, MG132) and low signal (unstimulated cells, DMSO) controls. To determine the IC50, a sigmoidal curve was fitted to the plot of % inhibition versus Log10 compound concentration.

Sequence of recombinant human NF-kappaB-inducing kinase (NIK/MAP3K14) (Q99558 whole entry): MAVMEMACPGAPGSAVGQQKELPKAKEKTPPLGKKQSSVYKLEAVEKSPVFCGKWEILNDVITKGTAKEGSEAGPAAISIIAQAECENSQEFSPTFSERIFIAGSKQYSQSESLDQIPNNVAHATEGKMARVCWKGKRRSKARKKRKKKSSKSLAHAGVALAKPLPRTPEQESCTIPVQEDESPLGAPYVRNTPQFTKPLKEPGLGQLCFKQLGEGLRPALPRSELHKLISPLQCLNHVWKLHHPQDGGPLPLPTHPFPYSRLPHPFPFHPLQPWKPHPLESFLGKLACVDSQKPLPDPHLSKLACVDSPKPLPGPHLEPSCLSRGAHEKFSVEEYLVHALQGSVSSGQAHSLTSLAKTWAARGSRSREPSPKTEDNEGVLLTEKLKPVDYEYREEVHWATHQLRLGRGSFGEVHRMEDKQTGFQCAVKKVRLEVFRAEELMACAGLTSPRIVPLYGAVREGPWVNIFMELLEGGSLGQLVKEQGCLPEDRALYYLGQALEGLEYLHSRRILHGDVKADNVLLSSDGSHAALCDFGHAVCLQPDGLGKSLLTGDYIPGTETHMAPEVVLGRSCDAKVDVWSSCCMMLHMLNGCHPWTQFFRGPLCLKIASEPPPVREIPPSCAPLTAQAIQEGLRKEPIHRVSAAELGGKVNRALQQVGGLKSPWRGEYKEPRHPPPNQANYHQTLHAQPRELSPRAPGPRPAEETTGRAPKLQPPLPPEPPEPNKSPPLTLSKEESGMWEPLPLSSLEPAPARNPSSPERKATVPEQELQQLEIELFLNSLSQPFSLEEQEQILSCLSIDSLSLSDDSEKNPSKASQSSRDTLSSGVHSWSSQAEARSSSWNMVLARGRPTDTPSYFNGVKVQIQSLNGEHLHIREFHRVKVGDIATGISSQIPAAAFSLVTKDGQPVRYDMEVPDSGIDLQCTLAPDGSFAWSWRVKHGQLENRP

Row | Structure (SMILES) | IC50 [1] | IC50 [2]
1 | C[C@@](O)(C#Cc1cccc(-c2cnc3ncnc(N)c3c2)c1)c1nccs1 [Example 108, (R)-4-(3-(4-Aminopyrido[2,3-d]pyrimidin-6-yl)phenyl)-2-(thiazol-2-yl)but-3-yn-2-ol] | 7.6 nM | > 5000 nM
2 | Cc1cnc(N)c2nc(-c3cccc(C#C[C@]4(O)CCN(C)C4=O)c3)nc(C)c12 [Example 138, (R)-3-((3-(8-Amino-4,5-dimethylpyrido[3,4-d]pyrimidin-2-yl)phenyl)ethynyl)-3-hydroxy-1-methylpyrrolidin-2-one] | ≤ 0.5 nM | 9.6 nM
3 | Cc1nc(N)c2nc(-c3cccc(C#C[C@@](C)(O)c4ccccn4)c3)ccc2n1 [Example 190, (R)-4-[3-(4-Amino-2-methyl-pyrido[3,2-d]pyrimidin-6-yl)phenyl]-2-(2-pyridyl)but-3-yn-2-ol] | 1830 nM | > 5000 nM
4 | Cc1nc(N)c2nc(-c3cccc(C#C[C@](C)(O)c4cscn4)c3)ccc2n1 [Example 209, (S)-4-[3-(4-Amino-2-methyl-pyrido[3,2-d]pyrimidin-6-yl)phenyl]-2-thiazol-4-yl-but-3-yn-2-ol] | 110 nM | > 5000 nM
5 | Cc1ccc(C#C[C@]2(O)CCc3cccnc32)cc1-c1ncc2ccnc(N)c2n1 [Example 75, (R)-7-((3-(8-Aminopyrido[3,4-d]pyrimidin-2-yl)-4-methylphenyl)ethynyl)-6,7-dihydro-5H-cyclopenta[b]pyridin-7-ol] | 1.3 nM | 84 nM
6 | Cc1nc(-c2cccc(C#C[C@]3(O)CCN(CC(F)(F)F)C3=O)c2)nc2c(N)nccc12 [Example 92, (R)-3-[2-[3-(8-Amino-4-methyl-pyrido[3,4-d]pyrimidin-2-yl)phenyl]ethynyl]-3-hydroxy-1-(2,2,2-trifluoroethyl)pyrrolidin-2-one] | 6.6 nM | 480 nM
7 | Cc1ccc(C#C[C@]2(O)CCN(C)C2=O)cc1-c1ncc2c(C)cnc(N)c2n1 [Example 65, (R)-3-[2-[3-(8-Amino-5-methyl-pyrido[3,4-d]pyrimidin-2-yl)-4-methyl-phenyl]ethynyl]-3-hydroxy-1-methyl-pyrrolidin-2-one] | 1 nM | 48 nM
8 | C[C@@](O)(C#Cc1cccc(-c2nc(C(F)(F)F)c3ccnc(N)c3n2)c1)c1nccs1 [Example 49, (R)-4-(3-(8-Amino-4-(trifluoromethyl)pyrido[3,4-d]pyrimidin-2-yl)phenyl)-2-(thiazol-2-yl)but-3-yn-2-ol] | 2.5 nM | 130 nM
9 | Cc1csc([C@@](C)(O)C#Cc2cccc(-c3ccc4nc(C)nc(N)c4n3)c2)n1 [Example 181, (S)-4-(3-(4-Amino-2-methylpyrido[3,2-d]pyrimidin-6-yl)phenyl)-2-(4-methylthiazol-2-yl)but-3-yn-2-ol] | > 5000 nM | > 5000 nM
10 | Cc1nc(N)c2nc(-c3cccc(C#C[C@@](C)(O)c4nc(C(F)(F)F)cs4)c3)ccc2n1 [Example 192, (R)-4-(3-(4-Amino-2-methylpyrido[3,2-d]pyrimidin-6-yl)phenyl)-2-(4-(trifluoromethyl)thiazol-2-yl)but-3-yn-2-ol] | 1110 nM | > 5000 nM
11 | [2H]c1nc(N)c2nc(-c3cccc(C#C[C@]4(O)C(=O)N(C)[C@H]5C[C@H]54)c3)ccc2n1 [Example 275, (1S,4S,5R)-4-((3-(4-Aminopyrido[3,2-d]pyrimidin-6-yl-2-d)phenyl)ethynyl)-4-hydroxy-2-methyl-2-azabicyclo[3.1.0]hexan-3-one] | 300 nM | > 5000 nM
12 | CN1CC[C@@](O)(C#Cc2cccc(-c3ncc4c(CN5CCCCC5)cnc(N)c4n3)c2)C1=O [Example 145, (R)-3-[2-[3-[8-Amino-5-(1-piperidylmethyl)pyrido[3,4-d]pyrimidin-2-yl]phenyl]ethynyl]-3-hydroxy-1-methyl-pyrrolidin-2-one] | 3.6 nM | 280 nM
13 | CN1CC[C@@](O)(C#Cc2cccc(-n3cc4c(N)ncnc4n3)c2)C1=O [Example 179, (R)-3-((3-(4-Amino-2H-pyrazolo[3,4-d]pyrimidin-2-yl)phenyl)ethynyl)-3-hydroxy-1-methylpyrrolidin-2-one] | 1170 nM | > 5000 nM
14 | CN1CC[C@@](O)(C#Cc2cccc(-c3ncc4c(-c5cnn(CCCC#N)c5)cnc(N)c4n3)c2)C1=O [Example 140, (R)-4-[4-[8-Amino-2-[3-[2-(3-hydroxy-1-methyl-2-oxo-pyrrolidin-3-yl)ethynyl]phenyl]pyrido[3,4-d]pyrimidin-5-yl]pyrazol-1-yl]butanenitrile] | ≤ 0.5 nM | 6.2 nM
15 | Cc1nc(-c2cccc(C#Cc3ccn[nH]3)c2)nc2c(N)nccc12 [Example 107, 2-(3-((1H-Pyrazol-5-yl)ethynyl)phenyl)-4-methylpyrido[3,4-d]pyrimidin-8-amine] | 52 nM | > 5000 nM

Other lines, results leading:

Row | IC50 [1] | IC50 [2] | Structure (SMILES)
16 | > 5000 nM | > 5000 nM | Cc1nc(N)c2nc(-c3cccc(C#C[C@]4(O)C(=O)N(C)C[C@@H]4C)c3)ccc2n1 (stereo in doubt) [Example 293, (3S,4S*)-3-((3-(4-Amino-2-methylpyrido[3,2-d]pyrimidin-6-yl)phenyl)ethynyl)-3-hydroxy-1,4-dimethylpyrrolidin-2-one]
17 | 0.6 nM | 12 nM | Cc1nc(N)c2nc(-c3cccc(C#C[C@]4(O)CCN(C)C4=O)c3)ccc2n1 [Example 6, (R)-3-((3-(4-Amino-2-methylpyrido[3,2-d]pyrimidin-6-yl)phenyl)ethynyl)-3-hydroxy-1-methylpyrrolidin-2-one]
18 | 12 nM | 180 nM | CN1CC[C@@](O)(C#Cc2cccc(-c3ccc4nc(CO)nc(N)c4n3)c2)C1=O [Example 173, (R)-3-((3-(4-Amino-2-(hydroxymethyl)pyrido[3,2-d]pyrimidin-6-yl)phenyl)ethynyl)-3-hydroxy-1-methylpyrrolidin-2-one]
19 | 9.2 nM | 240 nM | Cc1nc(N)c2nc(-c3cc(C#C[C@]4(O)CCN(C)C4=O)ccc3OC(F)(F)F)ccc2n1 [Example 237, (R)-3-((3-(4-Amino-2-methylpyrido[3,2-d]pyrimidin-6-yl)-4-(trifluoromethoxy)phenyl)ethynyl)-3-hydroxy-1-methylpyrrolidin-2-one]
20 | 110 nM | 1910 nM | CN1CC[C@@](O)(C#Cc2cccc(-c3ccc4ncnc(NC5COC5)c4n3)c2)C1=O [Example 229, (R)-3-Hydroxy-1-methyl-3-((3-(4-(oxetan-3-ylamino)pyrido[3,2-d]pyrimidin-6-yl)phenyl)ethynyl)pyrrolidin-2-one]
21 | 4.2 nM | 390 nM | CN1CC[C@@](O)(C#Cc2cccc(-c3ccc4ncnc(N5CCCC5)c4n3)c2)C1=O [Example 222, (R)-3-Hydroxy-1-methyl-3-((3-(4-(pyrrolidin-1-yl)pyrido[3,2-d]pyrimidin-6-yl)phenyl)ethynyl)pyrrolidin-2-one]
22 | 240 nM | > 5000 nM | CN1CC[C@@](O)(C#Cc2cccc(-c3ccc4nccc(N)c4n3)c2)C1=O [Example 219, (R)-3-((3-(8-Amino-1,5-naphthyridin-2-yl)phenyl)ethynyl)-3-hydroxy-1-methylpyrrolidin-2-one]
23 | 1.7 nM | 12 nM | CN1CC[C@@](O)(C#Cc2cccc(-c3cc(OC(F)F)c4ncnc(N)c4n3)c2)C1=O [Example 299, (R)-3-[2-[3-[4-Amino-8-(difluoromethoxy)pyrido[3,2-d]pyrimidin-6-yl]phenyl]ethynyl]-3-hydroxy-1-methyl-pyrrolidin-2-one]
